Results published in patent US20260098017A1, “NOVEL AROMATIC RING DERIVATIVE CONTAINING AMIDE SUBSTITUTION AND USE THEREOF” (TIANJIN PHARMACEUTICAL BIOTECHNOLOGY CO., LTD., priority 2022, published 2026).

Columns and labels:
[1] = molecular target: JAK2 JH1 kinase (Homo sapiens, UniProt O60674); assay: JAK2 JH1 enzyme assay in vitro (TR-FRET); format: biochemical; settings: read-out: JAK 2 JH1 IC50
[2] = molecular target: T1, TYK2 JH1 kinase (Homo sapiens, UniProt P29597); assay: TYK2 JH1 enzyme assay in vitro (TR-FRET); format: biochemical
T1 sequence (P29597 897-1176 limits assumed): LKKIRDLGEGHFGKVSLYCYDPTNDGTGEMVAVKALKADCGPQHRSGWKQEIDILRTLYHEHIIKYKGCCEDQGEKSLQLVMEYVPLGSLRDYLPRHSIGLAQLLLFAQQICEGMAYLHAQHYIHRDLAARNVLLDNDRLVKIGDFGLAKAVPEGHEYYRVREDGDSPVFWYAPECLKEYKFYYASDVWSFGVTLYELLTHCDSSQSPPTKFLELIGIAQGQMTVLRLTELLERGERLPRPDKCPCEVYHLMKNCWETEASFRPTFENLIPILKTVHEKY

[3] = molecular target: Ba/F3 cell line expressing TYK2 (Homo sapiens, UniProt P29597, cells depend on it, form not given); assay: In vitro cellular inhibition assay (Ba/F3 cell proliferation, CellTiter-Glo); format: cell-based; settings: read-out: IC50 (the source's name)
Protocol: The inhibitory effect of the compounds of formula (I) according to the present invention on the TYK2 signaling pathway in cells was assessed using the following method:
Instrumentation: SpectraMax Paradigm reader.
Method: in this experiment, a Ba/F3 cell line expressing TYK2 was employed to assess the effect of the compounds on cell proliferation inhibition by measuring their effects on cell activity in vitro.
Procedure: a CellTiter-Glo buffer was thawed and placed aside till room temperature. A CellTiter-Glo substrate was placed aside till room temperature and dissolved with the buffer to prepare a CellTiter-Glo working solution. To a 96-well flat bottom transparent drug plate, 98 μL of cell culture medium and 2 μL of gradient diluted compound solution were added. The drug plate was placed aside for 10 min, and then 50 μL of the CellTiter-Glo working solution was added. The drug plate was subsequently shaken on an orbital shaker for 2 min and placed aside at room temperature for an additional 10 min. Finally, the luminescence signal was measured on the SpectraMax Paradigm reader.
Data Analysis: the cell proliferation inhibition rate data were processed using the following formula:
Inhibition Rate (Inh %)=100−(RLUDrug−RLUMin)/(RLUMax−RLUMin)×100%.
The inhibition rates of compounds with different concentrations were calculated in EXCEL, and then GraphPad Prism software was employed to plot inhibition rate curve and calculate relevant parameters, including maximum and minimum cell inhibition rates, IC50 values.

[4] = molecular target: JAK1 JH2 pseudokinase (Homo sapiens, UniProt P23458); assay: JAK1 JH2 enzyme binding assay in vitro (TR-FRET); settings: read-out: JAK 1 JH2 IC50
Sequence of JAK1 JH2 pseudokinase (P23458 583-855 limits assumed): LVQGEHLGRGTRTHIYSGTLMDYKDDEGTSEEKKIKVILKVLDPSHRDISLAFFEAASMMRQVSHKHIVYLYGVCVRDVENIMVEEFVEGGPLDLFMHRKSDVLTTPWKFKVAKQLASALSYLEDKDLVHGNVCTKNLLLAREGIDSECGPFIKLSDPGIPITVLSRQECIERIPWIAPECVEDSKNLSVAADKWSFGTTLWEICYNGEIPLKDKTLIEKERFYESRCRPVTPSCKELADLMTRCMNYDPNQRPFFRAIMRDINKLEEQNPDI
Protocol: Instrumentation: Envision microplate reader (PerkinElmer), Echo (LABCYTE)
Method: in this experiment, the inhibitory effects of compounds on JAK1 JH2 pseudokinase was tested using time-resolved fluorescence resonance energy transfer (TR-FRET) method.
Procedure: compounds were prepared into 10 mM stock solutions using DMSO, which were further diluted into compound dilutions with different concentration gradients in DMSO, and the compound dilutions with 200× final concentration were transferred to a 384-well assay plate using an Echo instrument. The preparation of the following 1× assay working solution: HEPES pH7.5 at a final concentration of 20 mM, MgCl2 at a final concentration of 10 mM, Brij-35 at a final concentration of 0.015%, DTT at a final concentration of 2 mM, BSA at a final concentration of 50 ug/mL. JAK1 JH2 pseudokinase with 3× final concentration, Tb antibody and Tracer were prepared using their respective 1× working solution. 5 uL of JAK1 JH2 pseudokinase was added to a 384-well assay plate, and centrifuged at 1000 rpm for 30 s. 5 uL of Tb antibody was added to the 384-well assay plate, and centrifuged at 1000 rpm for 30 s. 5 uL of Tracer was added to the 384-well assay plate, and centrifuged at 1000 rpm for 30 s. Incubation was performed at room temperature for 60 min, and then at 4° C. overnight. Finally, the 495 nm/520 nm fluorescence signal ratio was measured using the Envision microplate reader (PerkinElmer).
Data Analysis: XLfit, a software developed by IDBS and integrated into the Microsoft Excel environment, was used to process and analyze the test data. […] Thereafter, the concentration and corresponding inhibition rate data were imported into the XLfit software, and the Dose Response One Site 205 model within the software was employed to fit the inhibition rate-concentration curve by four-parameter method, and the IC50 value of the compound was calculated.

[5] = molecular target: JAK3 JH1 kinase (Homo sapiens, UniProt P52333); assay: JAK3 JH1 enzyme assay in vitro (TR-FRET); format: biochemical; settings: TR-FRET; read-out: JAK 3 JH1 IC50
Sequence of JAK3 JH1 kinase (P52333 822-1111 limits assumed): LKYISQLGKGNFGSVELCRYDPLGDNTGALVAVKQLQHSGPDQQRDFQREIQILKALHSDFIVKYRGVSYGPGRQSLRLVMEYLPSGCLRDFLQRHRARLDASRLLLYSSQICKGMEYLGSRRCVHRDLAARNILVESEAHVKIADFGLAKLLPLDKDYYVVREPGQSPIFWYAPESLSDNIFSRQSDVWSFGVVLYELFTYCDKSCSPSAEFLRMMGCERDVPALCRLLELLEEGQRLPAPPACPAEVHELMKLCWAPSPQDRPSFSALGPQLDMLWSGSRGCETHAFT

[6] = molecular target: TYK2 JH2 pseudokinase (Homo sapiens, UniProt P29597); assay: TYK2 JH2 enzyme binding assay in vitro (TR-FRET)
Sequence of TYK2 JH2 pseudokinase (P29597 589-875 limits assumed): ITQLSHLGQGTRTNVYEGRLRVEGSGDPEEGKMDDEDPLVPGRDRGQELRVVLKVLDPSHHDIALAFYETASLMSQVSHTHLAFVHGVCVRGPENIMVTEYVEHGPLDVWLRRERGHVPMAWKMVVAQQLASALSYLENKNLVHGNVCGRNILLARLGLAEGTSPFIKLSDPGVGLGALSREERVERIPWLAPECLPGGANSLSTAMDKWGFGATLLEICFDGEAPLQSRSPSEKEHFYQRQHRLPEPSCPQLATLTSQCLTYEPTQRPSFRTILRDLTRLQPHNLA
Protocol: Instrumentation: Envision microplate reader (PerkinElmer), ECHO550 (LABCYTE).
Method: the inhibitory effects of compounds on TYK2 JH2 pseudokinase was tested using time-resolved fluorescence resonance energy transfer (TR-FRET) method.
Procedure: compounds were prepared into 10 mM stock solutions using DMSO, which were further diluted into compound dilutions (200×) with different concentration gradients in DMSO, and the compound dilutions (200×) were transferred to a 384-well assay plate using an Echo instrument. […] TYK2 JH2 pseudokinase, Tb antibody, and Tracer working solutions were prepared using the dilution buffer, respectively. 5 uL of TYK2 JH2 pseudokinase working solution (final concentration 0.5 nM) was added to a 384-well assay plate, and centrifuged at 1000 rpm for 30 s. 5 uL of Tb antibody (final concentration 1×) was added to the 384-well assay plate, and centrifuged at 1000 rpm for 30 s. 5 uL of Tracer (final concentration 0.5 nM) was added to the 384-well assay plate, and centrifuged at 1000 rpm for 30 s. Incubation was performed at room temperature for 60 min, and then at 4° C. overnight.
Data Analysis: XLfit, a software developed by IDBS and integrated into the Microsoft Excel environment, was used to process and analyze the test data.

[7] = test system: imiquimod-induced mouse psoriasis-like model; assay: Imiquimod-induced mouse psoriasis-like model (PASI score); format: in vivo; settings: oral gavage, 10 mg/kg, 25 mg/kg, 50 mg/kg, bid, compared with the model group
[8] = molecular target: T2, hERG channel (Homo sapiens, UniProt Q12809); assay: hERG potassium channel inhibition assay (manual patch clamp); format: cell-based; settings: HEK-293 cell line stably expressing hERG channel, at the tested concentrations
T2 construct: expressed in transfected cells; host or cells: HEK-293
T2 sequence (Q12809 whole entry): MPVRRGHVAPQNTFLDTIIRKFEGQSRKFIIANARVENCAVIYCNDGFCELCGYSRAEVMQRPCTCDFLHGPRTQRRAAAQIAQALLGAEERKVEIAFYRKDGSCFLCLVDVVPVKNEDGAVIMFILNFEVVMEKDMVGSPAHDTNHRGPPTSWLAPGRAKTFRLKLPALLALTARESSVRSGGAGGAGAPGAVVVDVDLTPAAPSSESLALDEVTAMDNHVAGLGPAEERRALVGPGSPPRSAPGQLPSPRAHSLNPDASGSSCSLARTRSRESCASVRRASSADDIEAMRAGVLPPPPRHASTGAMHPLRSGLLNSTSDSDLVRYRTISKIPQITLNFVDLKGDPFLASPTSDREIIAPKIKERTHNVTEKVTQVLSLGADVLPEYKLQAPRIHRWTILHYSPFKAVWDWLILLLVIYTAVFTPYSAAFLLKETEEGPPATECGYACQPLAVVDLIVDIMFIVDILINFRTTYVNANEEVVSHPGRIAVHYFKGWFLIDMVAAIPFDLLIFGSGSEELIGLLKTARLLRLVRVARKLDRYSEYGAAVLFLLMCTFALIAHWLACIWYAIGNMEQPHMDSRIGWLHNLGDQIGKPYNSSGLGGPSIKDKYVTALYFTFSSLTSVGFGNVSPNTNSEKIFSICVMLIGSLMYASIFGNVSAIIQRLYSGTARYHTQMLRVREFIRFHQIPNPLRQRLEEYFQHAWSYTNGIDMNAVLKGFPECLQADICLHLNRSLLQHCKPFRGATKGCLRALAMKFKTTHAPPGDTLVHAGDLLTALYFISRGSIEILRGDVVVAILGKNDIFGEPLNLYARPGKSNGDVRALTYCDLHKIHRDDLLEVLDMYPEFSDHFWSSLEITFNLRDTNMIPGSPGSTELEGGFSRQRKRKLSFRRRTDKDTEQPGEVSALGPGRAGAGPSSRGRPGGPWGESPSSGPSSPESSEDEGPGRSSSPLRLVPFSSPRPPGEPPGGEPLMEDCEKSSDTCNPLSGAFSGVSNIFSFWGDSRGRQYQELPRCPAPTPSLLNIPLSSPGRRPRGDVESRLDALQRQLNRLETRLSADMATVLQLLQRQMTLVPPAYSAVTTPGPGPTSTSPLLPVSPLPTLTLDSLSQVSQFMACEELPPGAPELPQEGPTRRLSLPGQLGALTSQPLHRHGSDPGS
Protocol: Instrumentation: HEKA EPC 10 patch clamp amplifier.
Method: in this experiment, the blocking effect of the compounds on the current of the HEK-293 cell line stably expressing hERG channel was measured using the manual patch clamp technique, and the risk of the compounds on the inhibition of cardiac hERG potassium channel was assessed by fitting the concentration effect relationship.
Procedure: in the patch clamp operation, firstly, a capillary glass tube was pulled into a recording electrode using a microelectrode puller, then an electrode filled with intracellular solution was mounted into a microelectrode holder. A microelectrode manipulator was operated under an inverted microscope to immerse the electrode into an extracellular solution and the electrode resistance (Rpip) was recorded. Then, the electrode was slowly brought into contact with the cell surface, and a negative pressure was applied for suction to form a GΩ seal. At this point, a fast capacitance compensation was performed, and a negative pressure was continuously applied to suck and break the cell membrane to form a whole cell recording mode. Finally, a slow capacitance compensation was performed and experimental parameters including series resistance (Rs) and the like were recorded. No leakage compensation was performed. When the hERG current recorded by the whole cell was stable, the administration of drugs commenced, and each drug concentration acted for about 5 min (or until the current stabilization) before detecting the next concentration. A cover glass covered with cells was placed in a recording bath under an inverted microscope, the blank control extracellular solution and the working solution of the compounds to be tested sequentially flowed through the recording bath from low concentration to high concentration by using gravity perfusion to act on the cells, and solution exchange was performed using a peristaltic pump during recording. The current measured by each cell in the extracellular solution without the compound served as its own control group. Each concentration was independently assessed twice. All electrophysiological tests were performed at room temperature.
Data Analysis: firstly, the tail current (Peak tail currentcompound) after the action of each drug concentration and the blank control tail current (Peak tail currentcontrol) were normalized, then the inhibition rate
corresponding to each drug concentration was calculated, and the mean (Mean), standard deviation (SD) and standard error (SE) of the inhibition rate corresponding to each concentration were calculated, with data expressed as Mean±SE. The calculation of IC50 value and the fitting of dose-response curve for the compound were performed using GraphPad Prism software.

[9] = molecular target: JAK1 JH1 kinase (Homo sapiens, UniProt P23458); assay: JAK1 JH1 enzyme assay in vitro (TR-FRET); format: biochemical; settings: read-out: JAK 1 JH1 IC50
Sequence of JAK1 JH1 kinase (P23458 875-1153 limits assumed): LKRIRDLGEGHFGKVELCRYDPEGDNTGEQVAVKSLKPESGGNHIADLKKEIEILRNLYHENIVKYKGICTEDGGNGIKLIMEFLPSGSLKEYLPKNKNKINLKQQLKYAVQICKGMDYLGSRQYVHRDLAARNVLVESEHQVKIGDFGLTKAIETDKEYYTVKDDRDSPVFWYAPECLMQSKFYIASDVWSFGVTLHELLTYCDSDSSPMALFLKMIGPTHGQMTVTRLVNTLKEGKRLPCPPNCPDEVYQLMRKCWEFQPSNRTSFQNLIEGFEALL

Sequence of JAK2 JH1 kinase (O60674 849-1124 limits assumed): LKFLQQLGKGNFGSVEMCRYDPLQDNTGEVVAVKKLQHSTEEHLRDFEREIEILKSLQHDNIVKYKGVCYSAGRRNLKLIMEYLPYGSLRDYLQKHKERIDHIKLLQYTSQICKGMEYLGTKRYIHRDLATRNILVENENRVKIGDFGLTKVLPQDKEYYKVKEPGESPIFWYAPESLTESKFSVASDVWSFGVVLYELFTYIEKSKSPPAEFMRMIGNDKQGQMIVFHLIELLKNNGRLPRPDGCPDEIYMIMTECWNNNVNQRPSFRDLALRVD

| SMILES | IC50 [1] [nM] | IC50 [2] [nM] | GI50 [3] [nM] | IC50 [4] [nM] | IC50 [5] [nM] | IC50 [6] [nM] | Improvement of psoriasis symptoms by oral administration [7] | hERG inhibition [8] | IC50 [9] [nM] |
| --- | --- | --- | --- | --- | --- | --- | --- | --- | --- |
| [2H]C([2H])([2H])NC(=O)c1nnc(NC(=O)C2CC2)cc1Nc1cccc(C(=O)Nc2ccc(C)cc2)c1OC [Example 2] | > 10000 | > 10000 | 1 to 5 | 6.56 | > 10000 | 0.311 | effectively improve psoriasis symptoms | no significant inhibition | > 10000 |
| [2H]C([2H])([2H])NC(=O)c1nnc(NC(=O)C2CC2)cc1Nc1cccc(C(=O)Nc2ccc(C)c(C)c2)c1OC [Example 4] | > 10000 | > 10000 | 1 to 5 | 5.33 | > 10000 | 0.293 | effectively improve psoriasis symptoms | no significant inhibition | > 10000 |
| [2H]C([2H])([2H])NC(=O)c1nnc(NC(=O)C2CC2)cc1Nc1cccc(C(=O)Nc2ccc(F)cc2)c1OC [Example 5] | > 10000 | > 10000 | 1 to 5 | 6.93 | > 10000 | 0.281 | effectively improve psoriasis symptoms | no significant inhibition | > 10000 |
| [2H]C([2H])([2H])NC(=O)c1nnc(NC(=O)C2CC2)cc1Nc1cccc(C(=O)Nc2cnn(C)c2)c1OC [Example 34] | > 10000 | > 10000 | 1 to 5 | 4.16 | > 10000 | 0.341 | effectively improve psoriasis symptoms | no significant inhibition | > 10000 |
| [2H]C([2H])([2H])NC(=O)c1nnc(NC(=O)C2CC2)cc1Nc1cccc(C(=O)Nc2cncc(C)c2)c1OC [Example 38] | > 10000 | > 10000 | 1 to 5 | 2.35 | > 10000 | 0.322 | effectively improve psoriasis symptoms | no significant inhibition | > 10000 |
| [2H]C([2H])([2H])NC(=O)c1cnc(NC(=O)C2CC2)cc1Nc1cccc(C(=O)Nc2ccc(C)cc2)c1OC [Example 54] | > 10000 | > 10000 | 1 to 5 | 4.56 | > 10000 | 0.302 | effectively improve psoriasis symptoms | no significant inhibition | > 10000 |
| [2H]C([2H])([2H])NC(=O)c1cnc(NC(=O)C2CC2)cc1Nc1cccc(C(=O)Nc2cccc(C)c2)c1OC [Example 55] | > 10000 | > 10000 | 1 to 5 | 3.3 | > 10000 | 0.298 | effectively improve psoriasis symptoms | no significant inhibition | > 10000 |
| [2H]C([2H])([2H])NC(=O)c1cnc(NC(=O)C2CC2)cc1Nc1cccc(C(=O)Nc2ccc(F)cc2)c1OC [Example 57, 6-(Cyclopropanecarboxamido)-4-((3-((4-fluorophenyl)carbamoyl)-2-methoxyphenyl)amino)-N-(methyl-d3)nicotinamide] | > 10000 | > 10000 | 1 to 5 | 5.68 | > 10000 | 0.284 | effectively improve psoriasis symptoms | no significant inhibition | > 10000 |
| [2H]C([2H])([2H])NC(=O)c1cnc(NC(=O)C2CC2)cc1Nc1cccc(C(=O)Nc2ccc(C)c(C)c2)c1OC [Example 62] | > 10000 | > 10000 | 1 to 5 | 14.3 | > 10000 | 0.277 | effectively improve psoriasis symptoms | no significant inhibition | > 10000 |
| [2H]C([2H])([2H])NC(=O)c1cnc(NC(=O)C2CC2)cc1Nc1cccc(C(=O)Nc2cnn(C)c2)c1OC [Example 86] | > 10000 | > 10000 | 1 to 5 | 17.6 | > 10000 | 0.299 | effectively improve psoriasis symptoms | no significant inhibition | > 10000 |
